Source: patent publication US12023360B2, “Composition and methods of screening” (OPTIBIOTIX LIMITED, priority 2013, dated 2024)

Columns and labels:
Assay type in all cases: cell-based
Eubacteria = test: Anaerobic culture utilisation, FISH enumeration at 24 h: Eubacteria; conditions: inoculum 8.06
Method: (§1) In these experiments, anaerobic cultures were tested to evaluate the in vitro utilisation of a novel Lactobacillus reuteri galactooligosaccharide by monitoring the populations of gut bacterial groups at 24 hours using fluorescent in situ hybridisation, and short-chain fatty acid (SCFA). Fructooligosaccharides (FOS), melibiose and raffinose were used as reference carbohydrates.

Lactobacilli = test: Anaerobic culture utilisation, FISH enumeration at 24 h: Lactobacilli; conditions: inoculum 7.15
Method: as §1

Bifidobacteria = test: Anaerobic culture utilisation, FISH enumeration at 24 h: Bifidobacteria; conditions: inoculum 6.85
Method: as §1

E. coli = test: Anaerobic culture utilisation, FISH enumeration at 24 h: E. coli; conditions: inoculum 8.14
Method: as §1

Bacteroides = test: Anaerobic culture utilisation, FISH enumeration at 24 h: Bacteroides; conditions: inoculum 7.98
Method: as §1

Clostridia = test: Anaerobic culture utilisation, FISH enumeration at 24 h: Clostridia; conditions: inoculum 7.55
Method: as §1

With `OC[C@H]1O[C@H](OCC2O[C@@H](O)[C@H](O)[C@@H](O)[C@@H]2O)[C@H](O)[C@@H](O)[C@H]1O` (stereo partly shown) [Melibiose, melibiose] the “Eubacteria, 24” value (Eubacteria) was 7.84, the “Lactobacilli, 24” value (Lactobacilli) was 7.43 and the “Bifidobacteria, 24” value (Bifidobacteria) was 7.33. The “E. coli, 24” value (E. coli) was 7.66, the “Bacteroides, 24” value (Bacteroides) was 7.9 and the “Clostridia, 24” value (Clostridia) was 7.65.
With `OC[C@H]1O[C@H](OC[C@H]2O[C@H](O[C@]3(CO)O[C@H](CO)[C@@H](O)[C@@H]3O)[C@H](O)[C@@H](O)[C@@H]2O)[C@H](O)[C@@H](O)[C@H]1O` [Raffinose, raffinose] the “Clostridia, 24” value (Clostridia) was 7.81.
